The results in this text go back to ChEMBL document CHEMBL1150935, “New polyketides from the sponge Plakortis sp” (J Nat Prod, 1998).

Values after ≈ are worked out from the molar mass of the structure shown.

The series in a line: Toxicity against Artemia larvae. The conditions noted are these: in vivo, read-out: LD50 (the source's name). The series is classed as organism-based.
Consider `CCCC[C@H](C)C[C@]1(CC)C=C(CC)/C(=C/C(=O)OC)O1`, for which the LC50 was determined as 7 µg/mL (≈ 23.8 µM).

Regarding `CCCC[C@H](C)CC1(CC)C=C(CC)C(CC(=O)OC)OO1` (some centres undefined), the LC50 turned out to be 70 µg/mL (≈ 224 µM).

For `CCCC[C@H](C)CC1(CC)C=C(CC)C(CC(=O)OCC)OO1` (some centres undefined), the LC50 was more than 100 µg/mL.

`CCCC[C@H](C)CC(CC)C[C@@]1(CC)C[C@H](CC)[C@H](CC(=O)O)OO1` (some centres undefined): the LC50 came out at 15 µg/mL (≈ 42.1 µM).
